Laboratory results: the supplement of paper PMC10307832

Tests used:
Assay in all cases: relative viability (nuclei count vs DMSO), 5 days (fraction); higher = more cells survive
ALW-II-49-7 + Vorinostat = compound: Cc1ccc(C(=O)Nc2cccc(C(F)(F)F)c2)cc1Nc1cncc(C(N)=O)c1 [ALW-II-49-7] + O=C(CCCCCCC(=O)Nc1ccccc1)NO [Vorinostat] (partner 1 µM)
Summary of the method: (§1)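 A single step with final 0.05% Triton X-100, 1% formaldehyde and 1 ug/ml Hoechst fixed the cells and stained nuclei 5 days after treatment. Lung cancer cell lines in 1536-well plates had been treated by pin tool the day after seeding with one drug alone or a fixed anchor-drug dose plus five library-drug doses (not always all listed) in √10 steps, and nuclei were counted on 4× images. Relative viability is the ratio of nuclei in treated wells to nuclei in vehicle wells, taken as the median of duplicate plates.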

ALW-II-49-7 + Alpelisib = compound: Cc1ccc(C(=O)Nc2cccc(C(F)(F)F)c2)cc1Nc1cncc(C(N)=O)c1 [ALW-II-49-7] + Cc1nc(NC(=O)N2CCC[C@H]2C(N)=O)sc1-c1ccnc(C(C)(C)C(F)(F)F)c1 [Alpelisib] (partner 2 µM)
Summary of the method: as §1

XMD13-2 + OSI-027 = compound: C1CC1C(=O)NC2=NNC3=C2C=CC(=C3)C4=CC(=CC=C4)C(=O)NC5CC5 [XMD13-2] + COc1cccc2cc(-c3nc([C@H]4CC[C@H](C(=O)O)CC4)n4ncnc(N)c34)[nH]c12 [OSI-027] (partner 0.5 µM)
Summary of the method: as §1

XMD13-2 + Pictilisib = compound: C1CC1C(=O)NC2=NNC3=C2C=CC(=C3)C4=CC(=CC=C4)C(=O)NC5CC5 [XMD13-2] + CS(=O)(=O)N1CCN(Cc2cc3nc(-c4cccc5[nH]ncc45)nc(N4CCOCC4)c3s2)CC1 [Pictilisib] (partner 1 µM)
Summary of the method: as §1

| Cell Line | relative viability (ALW-II-49-7 + Vorinostat; first compound 0.08 µM) | relative viability (ALW-II-49-7 + Vorinostat; first compound 0.253 µM) | relative viability (ALW-II-49-7 + Vorinostat; first compound 0.8 µM) | relative viability (ALW-II-49-7 + Vorinostat; first compound 2.53 µM) | relative viability (ALW-II-49-7 + Vorinostat; first compound 8 µM) | relative viability (ALW-II-49-7 + Alpelisib; first compound 0.08 µM) | relative viability (ALW-II-49-7 + Alpelisib; first compound 0.253 µM) | relative viability (ALW-II-49-7 + Alpelisib; first compound 0.8 µM) | relative viability (ALW-II-49-7 + Alpelisib; first compound 2.53 µM) | relative viability (ALW-II-49-7 + Alpelisib; first compound 8 µM) | relative viability (XMD13-2 + OSI-027; first compound 0.05 µM) | relative viability (XMD13-2 + OSI-027; first compound 0.1581 µM) | relative viability (XMD13-2 + OSI-027; first compound 0.5 µM) | relative viability (XMD13-2 + OSI-027; first compound 1.581 µM) | relative viability (XMD13-2 + OSI-027; first compound 5 µM) | relative viability (XMD13-2 + Pictilisib; first compound 0.05 µM) | relative viability (XMD13-2 + Pictilisib; first compound 0.1581 µM) | relative viability (XMD13-2 + Pictilisib; first compound 0.5 µM) | relative viability (XMD13-2 + Pictilisib; first compound 1.581 µM) | relative viability (XMD13-2 + Pictilisib; first compound 5 µM) |
| --- | --- | --- | --- | --- | --- | --- | --- | --- | --- | --- | --- | --- | --- | --- | --- | --- | --- | --- | --- | --- |
| NCI-H2023 | 0.683 | 0.688 | 0.434 | 0.64 | 0.625 | 0.66 | 0.575 | 0.657 | 0.641 | 0.677 | 0.58 | 0.36 | 0.4 | 0.357 | 0.341 | 0.318 | 0.244 | 0.219 | 0.24 | 0.225 |
| NCI-H2085 | 0.787 | 0.899 | 0.718 | 0.817 | 0.702 | 1.03 | 0.903 | 0.971 | 0.895 | 1.01 | 0.74 | 0.749 | 0.757 | 0.654 | 0.916 | 0.828 | 0.445 | 0.444 | 0.444 | 0.481 |
| NCI-H2087 | 0.687 | 0.597 | 0.662 | 0.508 | 0.38 | 1.26 | 1.1 | 1.09 | 0.973 | 0.996 | 0.716 | 0.69 | 0.482 | 0.565 | 0.489 | 0.95 | 0.846 | 1.05 | 0.888 | 0.772 |
| NCI-H2126 | 0.8 | 0.877 | 0.778 | 0.71 | 0.707 | 0.713 | 0.723 | 0.726 | 0.763 | 0.738 | 0.8 | 0.665 | 0.666 | 0.702 | 0.837 | 0.508 | 0.448 | 0.503 | 0.518 | 0.502 |
| NCI-H2170 | 0.917 | 0.921 | 0.841 | 0.796 | 0.867 | 0.723 | 0.762 | 0.751 | 0.867 | 0.793 | 0.748 | 0.703 | 0.744 | 0.559 | 0.704 | 0.349 | 0.33 | 0.338 | 0.275 | 0.247 |
| NCI-H2228 | 0.534 | 0.414 | 0.513 | 0.674 | 0.49 | 0.647 | 0.649 | 0.866 | 0.75 | 0.769 | 0.824 | 0.605 | 0.597 | 0.518 | 0.546 | 0.44 | 0.452 | 0.566 | 0.351 | 0.402 |
| NCI-H2347 | 0.519 | 0.5 | 0.653 | 0.49 | 0.559 | 1.08 | 0.98 | 0.986 | 0.869 | 0.873 | 0.394 | 0.455 | 0.426 | 0.444 | 0.413 | 0.743 | 0.655 | 0.826 | 0.827 | 0.387 |
| NCI-H2405 | 1.08 | 1.14 | 0.968 | 0.905 | 0.789 | 0.741 | 0.829 | 0.743 | 0.248 | 0.753 | 0.632 | 0.543 | 0.587 | 0.676 | 0.598 | 0.539 | 0.543 | 0.434 | 0.389 | 0.474 |
| NCI-H3122 | 1.06 | 0.907 | 0.854 | 1.15 | 0.987 | 0.824 | 0.651 | 0.865 | 0.873 | 0.981 | 1.02 | 0.924 | 1.02 | 0.917 | 0.7 | 0.655 | 0.598 | 0.585 | 0.662 | 0.505 |
| PC-3 [JPC-3] | 0.833 | 0.822 | 0.678 | 0.846 | 0.742 | 1.02 | 0.989 | 0.987 | 1.09 | 1.02 | 0.831 | 0.663 | 0.746 | 0.707 | 0.754 | 0.746 | 0.733 | 0.777 | 0.747 | 0.724 |
| PC-14 | 0.474 | 0.544 | 0.668 | 0.562 | 0.588 | 0.833 | 0.541 | 0.838 | 0.911 | 0.828 | 1.04 | 0.832 | 0.98 | 0.842 | 0.971 | 0.995 | 0.684 | 0.67 | 0.608 | 0.766 |
| RERF-LC-KJ | 0.646 | 0.731 | 0.653 | 0.755 | 0.646 | 0.785 | 0.567 | 0.754 | 0.745 | 0.882 | 0.655 | 0.662 | 0.624 | 0.564 | 0.452 | 0.57 | 0.558 | 0.435 | 0.571 | 0.5 |
| SK-LU-1 | 0.754 | 0.64 | 0.551 | 0.628 | 0.493 | 0.966 | 1.01 | 1.11 | 0.674 | 0.558 | 0.382 | 0.375 | 0.426 | 0.311 | 0.389 | 0.604 | 0.671 | 0.658 | 0.563 | 0.502 |
| SK-MES-1 | 1.14 | 1.16 | 1.05 | 1.04 | 0.938 | 0.852 | 0.802 | 0.891 | 0.779 | 0.753 | 0.597 | 0.571 | 0.618 | 0.564 | 0.673 | 0.408 | 0.422 | 0.333 | 0.365 | 0.349 |
| SW 1573 | 0.612 | 0.663 | 0.652 | 0.648 | 0.567 | 0.911 | 0.684 | 0.914 | 0.947 | 0.665 | 0.691 | 0.581 | 0.647 | 0.497 | 0.36 | 0.57 | 0.525 | 0.476 | 0.466 | 0.272 |
